Assay results taken from patent US4642340A, “Stable compounds of glucosamine sulphate” (Rotta Research Laboratorium S.p.A., priority 1981, dated 1987).
Counter-ions that a name gives are not always drawn. Like-named read-outs stand apart in the source and are kept apart here.

Tests used:
[1] = Solubility at 25° C. (w/v), saturated solutions, Elson-Morgan colorimetric method; format: physicochemical; conditions: for solubility thermodynamic: w/v
Experimental: Solubility (at 25° C.--w/v).
This test was carried out by preparing saturated solutions of glucosamine-SP in various solvents and determining the concentration of the glucosamine by the Elson-Morgan colorimetric method mentioned above.

pH of aqueous solution = format: physicochemical
Experimental: The pH of an aqueous saturated solution of glucosamine-SP at 20° C. is 3.0±0.2.

mice-embryo fibroblast [2] = assay: Stimulation of the production of soluble GAG in mice-embryo fibroblast cultures, uptake of ^35 S; format: cell-based, mice (strain C57 BL/6 stCrl)
Experimental: (§2) For this purpose, primary cultures of mice-embryo fibroblasts (strain C57 BL/6 stCrl) were prepared by mechanical and enzymatic dissociation (in Trypsin Versene mixture-Microbiological Associates) of the embryos taken from the mother on the 18th day of pregnancy. The culture medium is the Eagle medium modified by Dulbecco and supplemented with 15% of calf foetus serum. The incubation atmosphere consists of 5% of carbon dioxide in air at 37° C. 24 hours after innoculation, the medium is replaced by a new medium containing the drug under examination and the radioactive precursor (Na2^35 SO4) for the measurement of the synthesis both of soluble and tissue-bound GAG; the culture is left to incubate for a further 24 hours and then the culture medium (containing the soluble GAG) and fibroblasts (containing the tissue-bound GAG) are separated.
(§3) The soluble GAG are isolated from the culture medium by precipitation with a solution of 5% trichloroacetic acid in ice-water while the fibroblast residues, containing the tissue-bound GAG, after repeated washings with physiological solutions, are dissolved in [sequence] or VERSENE.
(§4) The quantity of ^35 S incorporated both in the soluble GAG and in the tissue-bound GAG are evaluated by the usual scintillation methods and expressed in cpm (counts per minute).
(§5) The tests were carried out five times for each sample in order to allow the results to be evaluated statistically.

mice-embryo fibroblast [3] = assay: Stimulation of the production of tissue-bound GAG in mice-embryo fibroblast cultures, uptake of ^35 S; format: cell-based, mice (strain C57 BL/6 stCrl)
Experimental: as §2, §3, §4, §5

[4] = tested on: granuloma from cotton pellets; assay: Anti-inflammatory activity, granuloma induced by cotton pellets; format: in vivo, female albino rats of the Sprague Dawley strain; conditions: for Average dry weight of the granuloma (average ± s.e.): in mg (unit assumed)
Experimental: The test consists of evaluating the capacity of the substances under examination to inhibit the formation of granuloma following the subcutaneous implantation of extraneous bodies (in this case, cotton pellets). […] One group of animals was used as a control. […] After the subcutaneous implant of 2 cotton pellets each having a weight of 20 mg into the dorsal region, the animals were administered daily, for 4 consecutive days, with the substances under examination in the doses given above.

Acute toxicity in mice = assay: Acute toxicity in mice; parameters: species or system Swiss NMRI mice; conditions: mouse, in vivo; for LD50 at 240 h: 10 days observation, read-out: DL50
Excerpt: Swiss NMRI mice having an average weight of 20±2 g, subdivided in groups of 10 animals (5 females and 5 males) were used for each dose and for each method of administration.
The methods of administration were: oral by means of gastric probe, intramuscular and endovenous into the caudal vein.
(§1) The observation time after administration was 10 days.

Acute toxicity in rats = assay: Acute toxicity in rats; parameters: species or system Sprague Dawley albino rats; conditions: rat, in vivo; for LD50 at 240 h: 10 days observation, read-out: DL50
Excerpt: Sprague Dawley albino rats having an average weight of about 150 g, subdivided into groups of 10 animals (5 males and 5 females) were used for each dose and for each method of administration.
The methods of administration were: oral by means of a gastric probe, intramuscular and endovenous into the caudal vein.
as §1

physchem = conditions: solid storage
[5] = 375 mg/kg/os daily, 4 days (= 300 mg/kg glucosamine sulphate)
[6] = 750 mg/kg/os daily, 4 days (= 600 mg/kg glucosamine sulphate)
[7] = im, intramuscular, max. dose 3750 mg/kg
[8] = iv, endovenous, max. dose 1875 mg/kg

For N[C@H]1C(O)O[C@H](CO)[C@@H](O)[C@@H]1O (stereo partly shown) [Glucosamine-SP, mixed salt of glucosamine sulphate and sodium chloride], which “Solubility (in words)” value ([1]; benzene, chloroform, carbon tetrachloride, methylene chloride, ligroin, ethyl ether) is on record?
The value was “insoluble”.

And the solubility thermodynamic ([1]; organic solvent or mixture, acetone, acetonitrile, tetrahydrofuran, dioxan (each))?
The solubility thermodynamic was less than 100 µg/mL.

And the solubility thermodynamic ([1]; organic solvent or mixture, ethanol)?
Its solubility thermodynamic is roughly 300 µg/mL.

And the solubility thermodynamic ([1]; organic solvent or mixture, methanol)?
The solubility thermodynamic was roughly 10000 µg/mL.

What about the solubility thermodynamic ([1]; water) of the same compound?
Its solubility thermodynamic is roughly 400000 µg/mL.

What about the “pH of an aqueous saturated solution” value (pH of aqueous solution; 20° C.) of the same compound?
The value was 3.0±0.2.

What about the “natural pH at the concentrations used” value (pH of aqueous solution; injectable phial concentrations) of the same compound?
Its value is “about 3”.

And the “Soluble GAG synthesis, average ± s.e.” value (mice-embryo fibroblast [2]; 12.5 γ/ml)?
The value was 6750 ± 718 cpm.

What about the “Soluble GAG synthesis, average ± s.e.” value (mice-embryo fibroblast [2]; 62.5 γ/ml) of the same compound?
Its value is 12730 ± 1201 cpm.

And the “Soluble GAG synthesis, average ± s.e.” value (mice-embryo fibroblast [2]; 125 γ/ml)?
Its value is 12440 ± 1473 cpm.

And the activation at 12.5 µg/mL (mice-embryo fibroblast [2]; Mus musculus, Fibroblast, 24 h, 12.5 γ/ml, read-out: Δ % over non-treated controls, soluble GAG)?
The activation at 12.5 µg/mL was 15.8%.

What about the activation at 62.5 µg/mL (mice-embryo fibroblast [2]; Mus musculus, Fibroblast, 24 h, 62.5 γ/ml, read-out: Δ % over non-treated controls, soluble GAG) of the same compound?
Its activation at 62.5 µg/mL is 118%.

What about the activation at 125 µg/mL (mice-embryo fibroblast [2]; Mus musculus, Fibroblast, 24 h, 125 γ/ml, read-out: Δ % over non-treated controls, soluble GAG) of the same compound?
The activation at 125 µg/mL was 113%.

And the “Tissue-bound GAG synthesis” value (mice-embryo fibroblast [3]; 12.5 γ/ml)?
Its value is 5490 ± 604 cpm.

And the “Tissue-bound GAG synthesis” value (mice-embryo fibroblast [3]; 62.5 γ/ml)?
The value was 7780 ± 612 cpm.

What about the “Tissue-bound GAG synthesis” value (mice-embryo fibroblast [3]; 125 γ/ml) of the same compound?
Its value is 8320 ± 1295 cpm.

And the activation at 12.5 µg/mL (mice-embryo fibroblast [3]; Mus musculus, Fibroblast, 24 h, 12.5 γ/ml, read-out: Δ % over non-treated controls, tissue-bound GAG)?
Its activation at 12.5 µg/mL is 17.3%.

And the activation at 62.5 µg/mL (mice-embryo fibroblast [3]; Mus musculus, Fibroblast, 24 h, 62.5 γ/ml, read-out: Δ % over non-treated controls, tissue-bound GAG)?
The activation at 62.5 µg/mL was 66.2%.

And the activation at 125 µg/mL (mice-embryo fibroblast [3]; Mus musculus, Fibroblast, 24 h, 125 γ/ml, read-out: Δ % over non-treated controls, tissue-bound GAG)?
Its activation at 125 µg/mL is 77.8%.

And the “% Inhibition of granuloma” value [4, 5]?
The value was 38.7%.

And the “Average dry weight of the granuloma (average ± s.e.)” value [4, 5]?
Its value is 94.6 ± 10.7.

What about the “% Inhibition of granuloma” value [4, 6] of the same compound?
The value was 58.0%.

What about the “Average dry weight of the granuloma (average ± s.e.)” value [4, 6] of the same compound?
Its value is 64.8 ± 7.0.

And the LD50 at 240 h (Acute toxicity in mice; im, intramuscular)?
The LD50 at 240 h was greater than 3750 mg/kg.

What about the mortality at 240 h (Acute toxicity in mice; [7]) of the same compound?
Its mortality at 240 h is 0%.

And the LD50 at 240 h (Acute toxicity in mice; iv, endovenous)?
The LD50 at 240 h was greater than 1880 mg/kg.

What about the mortality at 240 h (Acute toxicity in mice; [8]) of the same compound?
The mortality at 240 h was 0%.

What about the LD50 at 240 h (Acute toxicity in mice; oral) of the same compound?
The LD50 at 240 h was greater than 6250 mg/kg.

And the mortality at 240 h (Acute toxicity in mice; oral, max. dose 6250 mg/kg)?
The mortality at 240 h was 0%.

And the LD50 at 240 h (Acute toxicity in rats; im, intramuscular)?
Its LD50 at 240 h is greater than 3750 mg/kg.

And the mortality at 240 h (Acute toxicity in rats; [7])?
Its mortality at 240 h is 0%.

And the LD50 at 240 h (Acute toxicity in rats; iv, endovenous)?
The LD50 at 240 h was greater than 1880 mg/kg.

And the mortality at 240 h (Acute toxicity in rats; [8])?
The mortality at 240 h was 0%.

What about the LD50 at 240 h (Acute toxicity in rats; oral) of the same compound?
The LD50 at 240 h was greater than 6250 mg/kg.

And the mortality at 240 h (Acute toxicity in rats; oral, max. dose 6250 mg/kg)?
Its mortality at 240 h is 0%.

And the Appearance (15° C., 30% R.H., 0 days)?
Its Appearance is 1.

And the Titre of glucosamine (15° C., 30% R.H., 0 days)?
Its Titre of glucosamine is 101.2%.

And the Appearance (15° C., 30% R.H., 7 days)?
The Appearance was 1.

What about the Appearance (15° C., 30% R.H., 15 days) of the same compound?
The Appearance was 1.

What about the Appearance (15° C., 30% R.H., 30 days) of the same compound?
The Appearance was 1.

What about the Appearance (15° C., 30% R.H., 60 days) of the same compound?
Its Appearance is 1.

What about the Appearance (15° C., 30% R.H., 120 days) of the same compound?
The Appearance was 1.

And the Appearance (15° C., 30% R.H., 360 days)?
Its Appearance is 1.

What about the Appearance (15° C., 45% R.H., 0 days) of the same compound?
The Appearance was 1.

And the Titre of glucosamine (15° C., 45% R.H., 0 days)?
The Titre of glucosamine was 100.7%.

And the Appearance (15° C., 45% R.H., 7 days)?
Its Appearance is 1.

What about the Appearance (15° C., 45% R.H., 15 days) of the same compound?
Its Appearance is 1.

And the Appearance (15° C., 45% R.H., 30 days)?
The Appearance was 1.

What about the Appearance (15° C., 45% R.H., 60 days) of the same compound?
The Appearance was 1.

And the Appearance (15° C., 45% R.H., 120 days)?
The Appearance was 1.

What about the Appearance (15° C., 45% R.H., 360 days) of the same compound?
The Appearance was 1.

And the Appearance (15° C., 60% R.H., 0 days)?
Its Appearance is 1.

What about the Titre of glucosamine (15° C., 60% R.H., 0 days) of the same compound?
Its Titre of glucosamine is 101.2%.

What about the Appearance (15° C., 60% R.H., 3 days) of the same compound?
The Appearance was 1.

What about the Appearance (15° C., 60% R.H., 6 days) of the same compound?
Its Appearance is 1.

What about the Appearance (15° C., 60% R.H., 12 days) of the same compound?
The Appearance was 1.

And the Appearance (15° C., 60% R.H., 24 days)?
The Appearance was 1.

And the Appearance (15° C., 60% R.H., 36 days)?
Its Appearance is 1.

What about the Appearance (15° C., 60% R.H., 48 days) of the same compound?
Its Appearance is 1.

What about the Appearance (25° C., 30% R.H., 0 days) of the same compound?
The Appearance was 1.

What about the Appearance (25° C., 30% R.H., 7 days) of the same compound?
The Appearance was 1.

And the Appearance (25° C., 30% R.H., 15 days)?
The Appearance was 1.

What about the Appearance (25° C., 30% R.H., 30 days) of the same compound?
Its Appearance is 1.

What about the Appearance (25° C., 30% R.H., 60 days) of the same compound?
Its Appearance is 1.

And the Appearance (25° C., 30% R.H., 120 days)?
The Appearance was 1.

And the Appearance (25° C., 30% R.H., 360 days)?
The Appearance was 1.

And the Appearance (25° C., 45% R.H., 0 days)?
The Appearance was 1.

What about the Titre of glucosamine (25° C., 45% R.H., 0 days) of the same compound?
Its Titre of glucosamine is 98.9%.

What about the Appearance (25° C., 45% R.H., 3 days) of the same compound?
Its Appearance is 1.

What about the Appearance (25° C., 45% R.H., 6 days) of the same compound?
Its Appearance is 1.

And the Appearance (25° C., 45% R.H., 12 days)?
Its Appearance is 1.

And the Appearance (25° C., 45% R.H., 24 days)?
The Appearance was 1.

What about the Appearance (25° C., 45% R.H., 36 days) of the same compound?
The Appearance was 1.

What about the Appearance (25° C., 45% R.H., 48 days) of the same compound?
The Appearance was 1.

And the Appearance (25° C., 60% R.H., 0 hours)?
Its Appearance is 1.

And the Titre of glucosamine (25° C., 60% R.H., 0 hours)?
Its Titre of glucosamine is 100.7%.

What about the Appearance (25° C., 60% R.H., 2 hours) of the same compound?
The Appearance was 1.

What about the Appearance (25° C., 60% R.H., 4 hours) of the same compound?
Its Appearance is 1.

What about the Appearance (25° C., 60% R.H., 8 hours) of the same compound?
The Appearance was 1.

And the Appearance (25° C., 60% R.H., 16 hours)?
The Appearance was 1.

And the Appearance (25° C., 60% R.H., 24 hours)?
Its Appearance is 1.

What about the Appearance (25° C., 60% R.H., 36 hours) of the same compound?
Its Appearance is 1.

What about the “Preservation after one year” value (25° C., 60% relative humidity, one year) of the same compound?
The value was “perfectly preserved”.

What about the Colour change (40° C., 85% relative humidity, about 12 months) of the same compound?
Its Colour change is “slight darkening of the colour”.

What about the “Change in the subsequent 12 months” value (40° C., 85% relative humidity, months 12 to 24) of the same compound?
Its value is “remains constant”.

What about the “Appearance scale value assigned in all the tests” value (all temperature/humidity conditions of Tables 1 to 6) of the same compound?
The value was 1.

And the “Sensitivity to ambient relative humidity” value (even at high temperatures)?
Its value is “practically negligible”.

And the Titre of glucosamine (solid storage, 8 h)?
Its Titre of glucosamine is 101.2%.

And the Titre of glucosamine (solid storage, 24 h)?
The Titre of glucosamine was 99.2%.

And the Titre of glucosamine (solid storage, 1152 h)?
The Titre of glucosamine was 98.4%.

And the Titre of glucosamine (solid storage, 1440 h)?
The Titre of glucosamine was 98.6%.

What about the degraded at 8760 h (physchem; 85% rh) of the same compound?
The degraded at 8760 h was 3 to 4%.

And the remaining at 36 h (physchem; Titre of glucosamine)?
The remaining at 36 h was 100%.

And the remaining at 1152 h (physchem; Titre of glucosamine)?
Its remaining at 1152 h is 101%.
